Assays:
dallisgrass = assay: Test D dallisgrass; format: in vivo, Paspalum dilatatum; conditions: Postemergence, 0 to 100 scale
guineagrass = assay: Test D guineagrass; format: in vivo, Panicum maximum; conditions: Postemergence, 0 to 100 scale
sandbur = assay: Test D sandbur; format: in vivo, Cenchrus echinatus; conditions: Postemergence, 0 to 100 scale; for Sandbur plant response rating: 0 no injury, 100 complete control
surinam grass = assay: Test D surinam grass; format: in vivo, Brachiaria decumbens; conditions: Postemergence, 0 to 100 scale; for Surinam grass plant response rating: 0 no injury, 100 complete control
[1] = Rate 64 g/ha, 0 no injury, 100 complete control
[2] = Rate 125 g/ha, 0 no injury, 100 complete control

## CC(C)N(C(=O)n1oc(=O)n(C2CC2)c1=O)c1ccc(F)cc1F [Compound 299]
dallisgrass; [1]
  Plant response rating, Dallisgrass: 100
dallisgrass; [2]
  Plant response rating, Dallisgrass: 100
dallisgrass; Rate 250 g/ha
  Plant response rating, Dallisgrass: 100
dallisgrass; Rate 500 g/ha
  Plant response rating, Dallisgrass: 100
guineagrass; [1]
  Guineagrass plant response rating: 20
  Plant response rating, Guineagrass: 0
guineagrass; [2]
  Plant response rating, Guineagrass: 80
guineagrass; Rate 250 g/ha
  Plant response rating, Guineagrass: 100
guineagrass; Rate 500 g/ha
  Plant response rating, Guineagrass: 100
sandbur; Rate 64 g/ha
  Sandbur plant response rating: 90
sandbur; Rate 125 g/ha
  Sandbur plant response rating: 100
sandbur; Rate 250 g/ha
  Plant response rating, Sandbur: 100
sandbur; Rate 500 g/ha
  Plant response rating, Sandbur: 100
Surinam grass; Rate 64 g/ha
  Surinam grass plant response rating: 50
Surinam grass; Rate 125 g/ha
  Surinam grass plant response rating: 100
Surinam grass; Rate 250 g/ha
  Plant response rating Surinam grass: 100
Surinam grass; Rate 500 g/ha
  Plant response rating Surinam grass: 100

Reference: patent US6737383B1, “Herbicidal oxadiazolidines” (priority 1999, dated 2004)
